Reference: patent US11542475B2, “3D microphysiologic system” (Northwestern University, priority 2014, dated 2023)

Experiments:
[1] = tested on: human fallopian fimbriae FTE; assay: 3D human fimbriae culture: FTE proliferation by BrdU labeling; format: cell-based; conditions: insulin 5 μg/ml (ITS), H2O2 1 mM, E2 10 nM, n=6
Experimental: (§1) Tissues were micro-dissected in alpha-MEM (Gibco, Carlsbad, Calif.) with 1% penicillin-streptomycin (Invitrogen, Carlsbad, Calif.). Individual fimbriae were separated into ˜50 mm^3 pieces. A portion of the tissue was fixed in 2% paraformaldehyde for use as an uncultured control. For optimization studies, fimbriae were cultured without matrix, encapsulated in 0.5% alginate, or encapsulated in 0.5% alginate with 1 mg/ml collagen and 0.1% fibronectin, as previously described for murine cultures (King et al. J Vis Exp. 2011.; herein incorporated by reference in its entirety). For subsequent treatments, 0.5% alginate encapsulated fimbriae were randomly assigned to treatment groups, with at least five fimbriae per condition, per patient, in a 24-well plate containing alpha-MEM and 1% penicillin-streptomycin. […] Prior to fixation, fimbriae were labeled with 10 μM bromodeoxyurine (BrdU, Sigma-Aldrich) for 24 hours to denote proliferating cells. Fimbriae cultures were fixed (2% paraformaldehyde) followed by dehydration in ethanol and xylene, and embedment in paraffin.
Sections (5 μm) were cut and stained via hematoxylin and eosin for morphological analysis or immunohistochemistry was performed to localize proteins of interest as previously described (King et al. Endocr Relat Cancer. 2011. 18:627-42.; herein incorporated by reference in its entirety). Slides were rehydrated through an ethanol gradient, prior to 0.1M sodium citrate retrieval and peroxidase block. Tissues probed for BrdU were exposed to 4M HCl and 0.1M NaB4O7(Fisher Scientific) to denature DNA. All immunohistochemical reagents were obtained from Vector Laboratories, Inc (Burlingame, Calif.) unless otherwise stated. Tissues were blocked in 3% bovine serum albumin (Gemini, West Sacramento, Calif.)-TBS/10% serum and incubated with a primary antibody 1:50 acetylated tubulin (Cell Signaling, Cambridge, Mass.); 1:200 BrdU (AbCam, Cambridge, Mass.); 1:100 cytokeratin 8 (CK8, Developmental Studies Hybridoma Bank, Iowa City, Iowa); 1:50 p53 (Santa Cruz, Santa Cruz, Calif.); 1:100 PAX8 (Proteintech, Chicago, Ill.); 1:100 pH2AX (Cell Signaling); or 1:75 PR (Santa Cruz)) overnight at 4°. Tissues were washed in TBS-0.1% Tween and incubated with a secondary antibody (1:200), before being probed with ABC peroxidase standard, followed by detection with 3,3′-diaminobenzidine (DAB) and counterstained with hematoxylin.
Immunohistochemistry images were taken via a Nikon E600 microscope, DXM1200 digital camera and NIS Elements software (Nikon Instruments, Melville, N.Y.). For proliferation analysis, concurrent sections were stained for CK8 and BrdU. BrdU sections were imaged and epithelial cells (CK8 positive) were quantified for proliferation via ImageJ software (NIH, Bethesda, Md.). At least three fimbriae with 200 or more FTE were quantified for each treatment. […] Samples with p53 expression were quantified utilizing adjacent sections stained for the secretory cell marker PAX8 in a qualitative manner as described.

[2] = tested on: progesterone receptor (PR) expression in human fimbriae; assay: 3D human fimbriae culture: progesterone receptor immunohistochemistry; format: cell-based; conditions: 1 nM and 10 nM E2
Experimental: as §1
Sections (5 μm) were cut and stained via hematoxylin and eosin for morphological analysis or immunohistochemistry was performed to localize proteins of interest as previously described (King et al. Endocr Relat Cancer. 2011. 18:627-42.; herein incorporated by reference in its entirety). […]

[3] = tested on: VEGF-A; assay: ELISA of fallopian culture medium: VEGF-A; format: cell-based, human; conditions: 10 nM E2, 7 days, n=7; not significantly altered
Experimental: as §1, with “Fimbriae cultures were fixed (2% paraformaldehyde) followed by dehydration in ethanol and xylene, and embedment in paraffin.” left out
(§2) IL8, VEGF-A, and FGF2 were detected in fallopian culture medium by enzyme-linked immunosorbent assay for human IL8 (EMD Millipore, Billerica, Mass., USA), VEGF-A (RayBiotech, GA, USA), or FGF2 (Abcam) respectively using the manufacturers' protocols. […] Results were normalized to total protein content as determined by western blotting and Ponceau staining to account for difference in tissue size between treatment groups. […]

[4] = tested on: FGF2; assay: ELISA of fallopian culture medium: FGF2; format: cell-based, human; conditions: 10 nM E2, 7 days, n=6; not significantly altered
Experimental: as §1, with “Fimbriae cultures were fixed (2% paraformaldehyde) followed by dehydration in ethanol and xylene, and embedment in paraffin.” left out
as §2

[5] = tested on: primary human endocervical cells; assay: Immunohistochemistry of 3D endocervical cultures (PR, ER, Ki67); format: cell-based; conditions: day-14 (E2), day-28 (E2+P4)
Experimental: To represent a 28-day human menstrual cycle in vitro, a stepwise hormone regimen was added to the cells. For the first 7 days, cells were incubated with 0.1 nM E2, followed by 1 nM E2 for the next 7 days (FIG. 45). Then cells were treated for 1 nM E2 and 10 nM P4 for an additional 7 days, followed by 0.1 nM E2 and 50 nM P4 for 5 days. Then media without hormones were added for the final 2 days for a total culture period of 28 days. Media was collected every 48 h and stored at −20° C. For PR antagonist studies, cells were treated with 100 nM RU486 (Sigma, MO) which was added on day-21. To visualize the cells on scaffold, cells were infected with the adenovirus containing pAD-eGFP-RLC (Cell Imaging Core, Northwestern University) (Khuon et al. Journal of cell science 123:431-440.; herein incorporated by reference in its entirety) by adding 2 μl of amplified virus to 3.5 ml of media per […] for 24 h.
Scaffolds were washed twice in PBS, covered with histogel (Fisher Scientific, MA) and fixed in 4% paraformaldehyde for 5 h. Processing and hematoxylin and eosin (H&E) staining was performed at the Northwestern University Center for Reproductive Sciences Histology Core (Chicago, Ill.). […] HRP activity was detected using 3,3′-Diaminobenzidine (DAB) in 1:50 dilution (Dako, CA) as substrate for 30-60 sec and then counterstained with hematoxylin. […]

C[C@]12CC[C@@H]3c4ccc(O)cc4CC[C@H]3[C@@H]1CC[C@@H]2O [E2, estradiol]
FTE proliferation (percentage of total FTE cells, BrdU) ([1]; 2 days in culture): 5.2±2.3% | FTE proliferation (percentage of total FTE cells, BrdU) ([1]; 7 days in culture): 2.4±0.5% | progesterone receptor (PR) expression compared to vehicle control [2]: induction | VEGF-A increase compared to vehicle control [3]: 140%±75% | FGF2 decrease compared to vehicle control [4]: 9%±8% | Ki67 staining compared to control [5]: increased staining
